Entries after “also recorded” stand apart in the source; their conditions may differ.

The assay is described as follows: Blood metabolites after 4-day transition to standard diet supplemented with KDE (Experiment 4a). It is filed as in vivo, VM/Dk mice. The note with it: for blood ketone levels: vs baseline. The text has this:
Food Intake and Ketone Diester Administration: Standard diet dry food (2018 Teklad Global 18% Protein Rodent Diet, Harlan) was mixed with deionized water (1 g dry food/mL deionized water) into a consistent paste and placed on a 100×15 mm dish. Food intake was tracked daily at the same time (7:00-9:00) and replaced every other day to ensure fresh food. Due to sinusoidal/oscillatory changes in food intake observed every other day (2-day pattern), a 4-day (2×2-day pattern) average was taken at EOL and baseline to calculate changes in anorexic symptoms. KDE was chemically synthesized with physical properties, preparation, and analysis described previously. For evaluation of KDE effect on anorexia, food intake was tracked daily at the same time (7:00-9:00). […] Consequently, upon VM-M3 inoculation, KDE+VM-M3 received ad libitum 0% KDE/weight day 1, 5% KDE day 2, 10% KDE day 3, 15% KDE day 4, 20% KDE day 5, 25% KDE day 6, and 30% KDE day 7 through 21 on top of HPSD. VM-M3 and Sham received HPSD ad libitum. As pilot work indicated potential water evaporation in food paste in ventilated cages, dehydration standard curve was calculated across various volumes of plated food (5, 10, 25.0, 50.0, 100 g/food) with and without KDE over a two-day period. Standard curve equation [water evaporated=0.2472 (original grams of water)+1.364] was used to correct for amount of dehydration prior to calculating caloric intake. For LPS experiments, 1×4 mL/kg KDE gavage or 1×4 mL/kg water gavage were administered for KDE+LPS and LPS-only, respectively. Ab libitum food intake was tracked daily during initial analysis with caloric restriction reported as the percent reduction in 24-hour caloric intake from pre- to post-LPS administration. Pair-feeding was conducted during subsequent analysis. […]
Metabolic Biomarkers: Blood glucose and R β-hydroxybutyrate were measured using Precision Xtra™ Blood Glucose & Ketone Monitoring System (Abbott Laboratories, Abbott Park, IL). Blood lactate concentration was measured using Lactate Plus Lactate Meter (Nova Biomedical). IGF-1 and Insulin were relabeled for blinded analysis and subsequently analyzed using Luminex 100 system (Luminex, Austin, TX) with R&D Systems Mouse 1-Plex Luminex Assay (R&D Systems, Minneapolis, MN) and Milliplex Mouse Multiplex Kit (Millipore, St. Charles, MO), respectively, using manufacturer's protocol.
To determine whether KDE could alter systemic metabolism, blood metabolites were measured at baseline following a standard diet and after a 4-day transition to a standard diet supplemented with 20% KDE, 25% KDE, or 30% KDE. […] To determine whether KDE could alter metabolism in CACS, blood ketones, glucose, and lactate were measured weekly. […] Thus, to determine if KDE altered tumor burden, in vivo bioluminescence imaging was analyzed weekly.

Take `CC(=O)CC(=O)OCCC(C)OC(=O)CC(C)=O` (stereo not shown) [KDE, R/S 1,3-butanediol acetoacetate diester]: the blood ketone levels entry is recorded as “significant elevations” (20% KDE in standard diet, 4-day transition) and “significant elevations; also recorded: highest ketone elevations” (30% KDE in standard diet, 4-day transition). The blood glucose levels result is given as “greatest reduction in glucose” (30% KDE in standard diet, compared with 20% and 25% KDE); “significant reductions” (all KDE groups (20%, 25%, 30% KDE in standard diet), 4-day transition).
